Reference: patent US10787452B2 (Vertex Pharmaceuticals Incorporated, priority 2012, dated 2020)

The compounds below were run on HCT116 colorectal cancer cells (assay: Cisplatin sensitization assay (96 h cell viability MTS)). Settings: 96 h MTS, compound plus Cisplatin.
Format: cell-based
How it was run: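 Viability is measured with MTS reagent, added after 96 h and developed for 1 h at 37° C. Beforehand, cells receive compound and cisplatin simultaneously in a concentration matrix of 2-fold serial dilutions starting at 10 μM final.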
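Note: compound concentration needed to lower the Cisplatin-alone IC50 by a set fold.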

| Structure (SMILES) | Cisplatin Sensitization Assay |
| --- | --- |
| CN1CCC(S(=O)(=O)N2CCN(c3c(F)cncc3NC(=O)c3c(N)nn4cc(F)cnc34)CC2)CC1 [I-N-175, 2-amino-6-fluoro-N-(5-fluoro-4-(4-((1-methylpiperidin-4-yl)sulfonyl)piperazin-1-yl)pyridin-3-yl)pyrazolo[1,5-a]pyrimidine-3-carboxamide] | +++ (Compounds with a Cisplatin sensitization value of <0.02 μM are marked with “+++.”) |
| Nc1nn2cc(F)cnc2c1C(=O)Nc1cnccc1N1CCN(S(=O)(=O)C2CC2)CC1 [I-N-176, 2-amino-N-(4-(4-(cyclopropylsulfonyl)piperazin-1-yl)pyridin-3-yl)-6-fluoropyrazolo[1,5-a]pyrimidine-3-carboxamide] | +++ (Compounds with a Cisplatin sensitization value of <0.02 μM are marked with “+++.”) |
| Nc1nn2cc(F)cnc2c1C(=O)Nc1cnccc1N1CCN(S(=O)(=O)C2CCOCC2)CC1 [I-N-177, 2-amino-6-fluoro-N-(4-(4-((tetrahydro-2H-pyran-4-yl)sulfonyl)piperazin-1-yl)pyridin-3-yl)pyrazolo[1,5-a]pyrimidine-3-carboxamide] | +++ (Compounds with a Cisplatin sensitization value of <0.02 μM are marked with “+++.”) |
| CS(=O)(=O)N1CCN(c2ccncc2NC(=O)c2c(N)nn3cc(F)cnc23)CC1 [I-N-178, 2-amino-6-fluoro-N-(4-(4-(methylsulfonyl)piperazin-1-yl)pyridin-3-yl)pyrazolo[1,5-a]pyrimidine-3-carboxamide] | +++ (Compounds with a Cisplatin sensitization value of <0.02 μM are marked with “+++.”) |
| Nc1nn2cc(F)cnc2c1C(=O)Nc1cnccc1N1CCN(S(=O)(=O)C2CCOC2)CC1 (stereo not drawn) [I-N-179, 2-amino-6-fluoro-N-(4-(4-((tetrahydrofuran-3-yl)sulfonyl)piperazin-1-yl)pyridin-3-yl)pyrazolo[1,5-a]pyrimidine-3-carboxamide] | +++ (Compounds with a Cisplatin sensitization value of <0.02 μM are marked with “+++.”) |
| CN1CCC[C@@H]1C(=O)N1CCN(c2c(F)cncc2NC(=O)c2c(N)nn3cc(F)cnc23)CC1 [I-N-181, (R)-2-amino-6-fluoro-N-(5-fluoro-4-(4-(1-methylpyrrolidine-2-carbonyl)piperazin-1-yl)pyridin-3-yl)pyrazolo[1,5-a]pyrimidine-3-carboxamide] | +++ (Compounds with a Cisplatin sensitization value of <0.02 μM are marked with “+++.”) |
| Nc1nn2cc(F)cnc2c1C(=O)Nc1cncc(F)c1N1CCN2C(=O)CC[C@@H]2C1 [I-N-182, (R)-2-amino-6-fluoro-N-(5-fluoro-4-(6-oxohexahydropyrrolo[1,2-a]pyrazin-2(1H)-yl)pyridin-3-yl)pyrazolo[1,5-a]pyrimidine-3-carboxamide] | ++ (Compounds with a Cisplatin sensitization value >0.02 μM but <0.2 μM are marked with “++.”) |
| CN1CCOC2(CCN(c3ccncc3NC(=O)c3c(N)nn4cc(F)cnc34)CC2)C1 [I-N-183, 2-amino-6-fluoro-N-(4-(4-methyl-1-oxa-4,9-diazaspiro[5.5]undecan-9-yl)pyridin-3-yl)pyrazolo[1,5-a]pyrimidine-3-carboxamide] | +++ (Compounds with a Cisplatin sensitization value of <0.02 μM are marked with “+++.”) |
| Nc1nn2cc(F)cnc2c1C(=O)Nc1cncc(F)c1N1CCC(c2nccs2)CC1 [I-N-184, 2-amino-6-fluoro-N-(5-fluoro-4-(4-(thiazol-2-yl)piperidin-1-yl)pyridin-3-yl)pyrazolo[1,5-a]pyrimidine-3-carboxamide] | ++ (Compounds with a Cisplatin sensitization value >0.02 μM but <0.2 μM are marked with “++.”) |
| CCN1CCCC1C(=O)N1CCN(c2c(F)cncc2NC(=O)c2c(N)nn3cc(F)cnc23)CC1 (stereo not drawn) [I-N-185, 2-amino-N-(4-(4-(1-ethylpyrrolidine-2-carbonyl)piperazin-1-yl)-5-fluoropyridin-3-yl)-6-fluoropyrazolo[1,5-a]pyrimidine-3-carboxamide] | ++ (Compounds with a Cisplatin sensitization value >0.02 μM but <0.2 μM are marked with “++.”) |
| Nc1nn2cc(F)cnc2c1C(=O)Nc1cncc(F)c1N1CCN2C(=O)CC[C@@H]2C1 [I-N-186, (R)-2-amino-6-fluoro-N-(5-fluoro-4-(6-oxohexahydropyrrolo[1,2-a]pyrazin-2(1H)-yl)pyridin-3-yl)pyrazolo[1,5-a]pyrimidine-3-carboxamide] | +++ (Compounds with a Cisplatin sensitization value of <0.02 μM are marked with “+++.”) |
| Nc1nn2cc(F)cnc2c1C(=O)Nc1cncc(F)c1N1CCN(C(=O)CN2CCCC2)CC1 [I-N-187, 2-amino-6-fluoro-N-(5-fluoro-4-(4-(2-(pyrrolidin-1-yl)acetyl)piperazin-1-yl)pyridin-3-yl)pyrazolo[1,5-a]pyrimidine-3-carboxamide] | +++ (Compounds with a Cisplatin sensitization value of <0.02 μM are marked with “+++.”) |
| CN1CCC(S(=O)(=O)N2CCN(c3ccncc3NC(=O)c3c(N)nn4cc(F)cnc34)CC2)CC1 [I-N-188, 2-amino-6-fluoro-N-(4-(4-((1-methylpiperidin-4-yl)sulfonyl)piperazin-1-yl)pyridin-3-yl)pyrazolo[1,5-a]pyrimidine-3-carboxamide] | +++ (Compounds with a Cisplatin sensitization value of <0.02 μM are marked with “+++.”) |
| Nc1nn2cc(F)cnc2c1C(=O)Nc1cncc(F)c1N1CCC(N2CCOCC2)CC1 [I-N-189, 2-amino-6-fluoro-N-(5-fluoro-4-(4-morpholinopiperidin-1-yl)pyridin-3-yl)pyrazolo[1,5-a]pyrimidine-3-carboxamide] | +++ (Compounds with a Cisplatin sensitization value of <0.02 μM are marked with “+++.”) |
| CS(=O)(=O)C1CCN(c2ccncc2NC(=O)c2c(N)nn3cc(F)cnc23)CC1 [I-N-190, 2-amino-6-fluoro-N-(4-(4-(methylsulfonyl)piperidin-1-yl)pyridin-3-yl)pyrazolo[1,5-a]pyrimidine-3-carboxamide] | +++ (Compounds with a Cisplatin sensitization value of <0.02 μM are marked with “+++.”) |
| CN1CCN(C(=O)C2CCN(c3c(F)cncc3NC(=O)c3c(N)nn4cc(F)cnc34)C2)CC1 (stereo not drawn) [I-N-191, 2-amino-6-fluoro-N-(5-fluoro-4-(3-(4-methylpiperazine-1-carbonyl)pyrrolidin-1-yl)pyridin-3-yl)pyrazolo[1,5-a]pyrimidine-3-carboxamide] | + (Compounds with a Cisplatin sensitization value >0.2 μM but <5 μM are marked with “+.”) |
| CN1CCN(CC2CCN(c3c(F)cncc3NC(=O)c3c(N)nn4cc(C5(C#N)CC5)cnc34)CC2)CC1 [I-N-192, 2-amino-6-(1-cyanocyclopropyl)-N-(5-fluoro-4-(4-((4-methylpiperazin-1-yl)methyl)piperidin-1-yl)pyridin-3-yl)pyrazolo[1,5-a]pyrimidine-3-carboxamide] | +++ (Compounds with a Cisplatin sensitization value of <0.02 μM are marked with “+++.”) |
| CN1CCN(CC2CCN(c3c(F)cncc3NC(=O)c3c(N)nn4cc(F)cnc34)CC2)C(=O)C1 [I-N-193, 2-amino-6-fluoro-N-(5-fluoro-4-(4-((4-methyl-2-oxopiperazin-1-yl)methyl)piperidin-1-yl)pyridin-3-yl)pyrazolo[1,5-a]pyrimidine-3-carboxamide] | +++ (Compounds with a Cisplatin sensitization value of <0.02 μM are marked with “+++.”) |
| CN1CC(C(=O)N2CCN(c3c(F)cncc3NC(=O)c3c(N)nn4cc(F)cnc34)CC2)C1 [I-N-194] | +++ (Compounds with a Cisplatin sensitization value of <0.02 μM are marked with “+++.”) |
| Nc1nn2cc(F)cnc2c1C(=O)Nc1cnccc1N1CCN(S(=O)(=O)C2COC2)CC1 [I-N-195, 2-amino-6-fluoro-N-(4-(4-(oxetan-3-ylsulfonyl)piperazin-1-yl)pyridin-3-yl)pyrazolo[1,5-a]pyrimidine-3-carboxamide] | +++ (Compounds with a Cisplatin sensitization value of <0.02 μM are marked with “+++.”) |
| Nc1nn2cc(F)cnc2c1C(=O)Nc1cnccc1N1CCC(S(=O)(=O)N2CCN3CCC2CC3)CC1 [I-N-196, N-(4-(4-(1,4-diazabicyclo[3.2.2]nonan-4-ylsulfonyl)piperidin-1-yl)pyridin-3-yl)-2-amino-6-fluoropyrazolo[1,5-a]pyrimidine-3-carboxamide] | +++ (Compounds with a Cisplatin sensitization value of <0.02 μM are marked with “+++.”) |
| Nc1nn2cc(F)cnc2c1C(=O)Nc1cnccc1N1CCC(CN2CCC(F)(F)C2)CC1 [I-N-197, 2-amino-N-(4-(4-((3,3-difluoropyrrolidin-1-yl)methyl)piperidin-1-yl)pyridin-3-yl)-6-fluoropyrazolo[1,5-a]pyrimidine-3-carboxamide] | +++ (Compounds with a Cisplatin sensitization value of <0.02 μM are marked with “+++.”) |
| CN1CCC[C@H]1C(=O)N1CCN(c2ccncc2NC(=O)c2c(N)nn3cc(F)cnc23)CC1 [I-N-198, (S)-2-amino-6-fluoro-N-(4-(4-(1-methylpyrrolidine-2-carbonyl)piperazin-1-yl)pyridin-3-yl)pyrazolo[1,5-a]pyrimidine-3-carboxamide] | ++ (Compounds with a Cisplatin sensitization value >0.02 μM but <0.2 μM are marked with “++.”) |
| CN1CCC[C@@H]1C(=O)N1CCN(c2ccncc2NC(=O)c2c(N)nn3cc(F)cnc23)CC1 [I-N-199, (R)-2-amino-6-fluoro-N-(4-(4-(1-methylpyrrolidine-2-carbonyl)piperazin-1-yl)pyridin-3-yl)pyrazolo[1,5-a]pyrimidine-3-carboxamide] | +++ (Compounds with a Cisplatin sensitization value of <0.02 μM are marked with “+++.”) |
